Assay results as given in US6914052B2, “Selective anti-viral nucleoside chain terminators” (The Trustees of Boston College, priority 2001, dated 2005).

Assays:
Assay type in all cases: biochemical
Details in all cases: single triphosphate offered to enzyme/primer/template complex, template dG; 37° C. for 45 min; denaturing PAGE
[1] = target: HIV reverse transcriptase (Human immunodeficiency virus type 1 group M subtype B, UniProt P04585); test: Primer extension / chain termination with HIV reverse transcriptase
Excerpt: (§1) The nucleoside incorporation experiment for one of the modified nucleotide analog compounds of the present invention is illustrated in FIGS. 12 and 13. […] The first nucleoside added to the primer should be a C residue (coded by the G residue of the template). A single triphosphate of dC or the above analog is offered to the enzyme/primer/template complex. […] In the remaining lanes of the gel, experiments have been designed with only the analog dd2ApyTP present with the primer template complex.
(§2) The following buffers were used for each polymerase: DNA polmerase α, 50 mM Tris.HCl pH 8.0, 5 mM Mg(AcO)2, 1 mM DTT, 1 mM spermidine; DNA pol β 50 mM Tris.HCl pH 8.0, 10 mM MgCl2, 1 mM DTT; DNA Polymerase γ 50 mM Tris.HCl pH 7.5, 100 mM NaCl, 2.5 MM MgCl2; HIV RT 50 mM Tris.HCl pH 8.5, 10 mM MgCl2, 40 mM KCl, 1 mM DTT. Template, primer and the corresponding buffer were mixed and heated to 100° C. for 1 min, allowed to cool to room temperature then placed on ice for 30 min. Once the template and primer had been allowed to anneal the polymerase was added. The appropriate amount of template-primer mixture was added to a vial containing water and the NTP(s) at the desired concentration. Typical reaction volumes were 10 μL. The reactions were incubated at 37° C. for 45 min. […] Primer extensions were analyzed by standard methods by denaturing Polyacrylamide Gel Electrophoresis (PAGE). […]

human polymerase β = human polymerase β (Homo sapiens, UniProt P06746); test: Primer extension / chain termination with human polymerase β
Excerpt: as §1, §2

human polymerase α = target: T1, human polymerase α (Homo sapiens, UniProt P09884); test: Primer extension / chain termination with human polymerase α
T1 sequence (P09884 1-1462): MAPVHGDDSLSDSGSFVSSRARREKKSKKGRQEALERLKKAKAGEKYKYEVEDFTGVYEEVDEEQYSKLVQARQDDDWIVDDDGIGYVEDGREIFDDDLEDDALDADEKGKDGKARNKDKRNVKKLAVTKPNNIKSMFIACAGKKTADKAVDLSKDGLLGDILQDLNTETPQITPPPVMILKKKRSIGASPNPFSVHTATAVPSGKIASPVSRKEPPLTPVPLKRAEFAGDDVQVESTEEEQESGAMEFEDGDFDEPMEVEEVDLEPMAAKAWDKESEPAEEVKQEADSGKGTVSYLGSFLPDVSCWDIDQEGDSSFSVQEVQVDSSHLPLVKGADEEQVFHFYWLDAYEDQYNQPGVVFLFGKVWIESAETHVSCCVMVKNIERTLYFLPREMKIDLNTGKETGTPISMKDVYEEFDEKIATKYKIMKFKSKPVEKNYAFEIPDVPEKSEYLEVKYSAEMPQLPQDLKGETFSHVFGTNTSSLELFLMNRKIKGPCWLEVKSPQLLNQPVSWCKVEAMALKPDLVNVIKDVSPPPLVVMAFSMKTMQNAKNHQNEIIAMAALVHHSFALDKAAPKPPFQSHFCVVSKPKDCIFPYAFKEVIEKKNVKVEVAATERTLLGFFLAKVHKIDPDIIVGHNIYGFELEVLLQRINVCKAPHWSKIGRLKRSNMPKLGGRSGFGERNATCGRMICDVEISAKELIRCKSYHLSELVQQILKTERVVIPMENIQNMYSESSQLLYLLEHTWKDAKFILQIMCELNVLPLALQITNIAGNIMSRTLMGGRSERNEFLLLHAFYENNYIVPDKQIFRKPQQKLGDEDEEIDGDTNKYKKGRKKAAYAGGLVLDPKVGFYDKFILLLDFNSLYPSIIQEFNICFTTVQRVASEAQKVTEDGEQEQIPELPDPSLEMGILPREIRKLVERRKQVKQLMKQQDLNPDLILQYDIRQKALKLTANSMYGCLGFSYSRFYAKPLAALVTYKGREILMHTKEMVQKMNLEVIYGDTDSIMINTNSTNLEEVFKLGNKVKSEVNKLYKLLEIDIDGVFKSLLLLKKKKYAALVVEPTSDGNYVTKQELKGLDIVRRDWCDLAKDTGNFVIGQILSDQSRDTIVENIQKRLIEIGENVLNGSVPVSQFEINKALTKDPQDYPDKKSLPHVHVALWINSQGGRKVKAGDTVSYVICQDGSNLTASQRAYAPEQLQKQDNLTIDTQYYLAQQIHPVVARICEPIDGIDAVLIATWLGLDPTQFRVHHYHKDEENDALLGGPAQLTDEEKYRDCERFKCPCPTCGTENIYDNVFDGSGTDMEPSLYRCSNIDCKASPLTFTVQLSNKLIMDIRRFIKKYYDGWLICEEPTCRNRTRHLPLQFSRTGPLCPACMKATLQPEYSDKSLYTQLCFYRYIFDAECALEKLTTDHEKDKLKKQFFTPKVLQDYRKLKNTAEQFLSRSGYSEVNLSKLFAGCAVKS
Procedure: (§3) FIG. 13 illustrates the results for polymerases α and γ.
(§4) The following buffers were used for each polymerase: DNA polmerase α, 50 mM Tris.HCl pH 8.0, 5 mM Mg(AcO)2, 1 mM DTT, 1 mM spermidine; DNA pol β 50 mM Tris.HCl pH 8.0, 10 mM MgCl2, 1 mM DTT; DNA Polymerase γ 50 mM Tris.HCl pH 7.5, 100 mM NaCl, 2.5 MM MgCl2; HIV RT 50 mM Tris.HCl pH 8.5, 10 mM MgCl2, 40 mM KCl, 1 mM DTT. Template, primer and the corresponding buffer were mixed and heated to 100° C. for 1 min, allowed to cool to room temperature then placed on ice for 30 min. Once the template and primer had been allowed to anneal the polymerase was added. The appropriate amount of template-primer mixture was added to a vial containing water and the NTP(s) at the desired concentration. Typical reaction volumes were 10 μL. The reactions were incubated at 37° C. for 45 min. The reactions were quenched using Na-EDTA, heated at 100° C. for 1 min, and then flash frozen in liquid N2. Primer extensions were analyzed by standard methods by denaturing Polyacrylamide Gel Electrophoresis (PAGE).
(§5) Analytical polyacrylamide gel electrophoresis was performed using a 38×50 cm Sequi-Gen GT sequencing cell with a thickness of 0.4 mm and 15% monomer (acrylamide:bisacrylamide 19:1). Gels were run using 90 mM Tris-Borate 1 mM EDTA buffer (pH 8.3). Gels were imaged on Phosphorimager: 425 from Molecular Dynamics (Sunnyvale, Calif.).

human polymerase γ = target: T2, human polymerase γ (Homo sapiens, UniProt P54098); test: Primer extension / chain termination with human polymerase γ
T2 sequence (P54098 1-1239): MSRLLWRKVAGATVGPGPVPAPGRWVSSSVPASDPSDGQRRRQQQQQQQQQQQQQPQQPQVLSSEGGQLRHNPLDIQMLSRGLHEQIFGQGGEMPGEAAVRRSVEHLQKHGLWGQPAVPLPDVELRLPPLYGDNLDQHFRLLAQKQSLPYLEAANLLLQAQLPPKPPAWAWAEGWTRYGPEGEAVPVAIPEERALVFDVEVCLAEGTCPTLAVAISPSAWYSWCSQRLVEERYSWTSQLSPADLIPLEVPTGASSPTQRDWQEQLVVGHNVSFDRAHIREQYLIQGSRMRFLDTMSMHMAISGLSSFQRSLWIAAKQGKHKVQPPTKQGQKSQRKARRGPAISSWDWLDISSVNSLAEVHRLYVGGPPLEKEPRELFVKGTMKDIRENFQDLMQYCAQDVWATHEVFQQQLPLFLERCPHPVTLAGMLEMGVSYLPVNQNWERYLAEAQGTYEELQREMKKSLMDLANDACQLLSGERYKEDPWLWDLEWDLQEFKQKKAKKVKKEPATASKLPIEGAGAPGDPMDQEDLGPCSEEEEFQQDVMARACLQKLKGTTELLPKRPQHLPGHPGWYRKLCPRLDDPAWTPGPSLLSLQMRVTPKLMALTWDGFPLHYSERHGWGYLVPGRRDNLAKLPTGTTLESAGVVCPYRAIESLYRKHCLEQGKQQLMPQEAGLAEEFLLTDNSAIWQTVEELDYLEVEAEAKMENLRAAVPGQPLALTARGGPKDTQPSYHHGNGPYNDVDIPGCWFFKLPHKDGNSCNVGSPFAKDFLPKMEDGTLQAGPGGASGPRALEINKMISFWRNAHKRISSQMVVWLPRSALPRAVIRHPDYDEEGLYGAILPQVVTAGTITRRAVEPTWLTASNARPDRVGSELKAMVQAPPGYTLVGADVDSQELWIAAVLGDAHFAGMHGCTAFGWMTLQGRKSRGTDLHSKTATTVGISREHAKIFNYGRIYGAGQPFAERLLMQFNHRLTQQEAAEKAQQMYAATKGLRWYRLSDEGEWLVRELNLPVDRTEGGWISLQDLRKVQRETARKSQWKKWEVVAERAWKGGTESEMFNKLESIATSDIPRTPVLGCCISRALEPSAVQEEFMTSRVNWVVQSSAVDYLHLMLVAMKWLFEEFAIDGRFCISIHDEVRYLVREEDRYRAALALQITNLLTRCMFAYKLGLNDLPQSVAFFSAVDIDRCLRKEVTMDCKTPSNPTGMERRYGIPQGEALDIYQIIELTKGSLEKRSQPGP
Procedure: as §3, §4, §5

Nc1ccn([C@H]2C[C@H](O)[C@@H](COP(=O)(O)OP(=O)(O)OP(=O)(O)O)O2)c(=O)n1 [dCTP]
incorporation of the triphosphate into the primer (primer extension, gel, FIG. 12 left) [1]: two additions of the nucleoside | incorporation of the triphosphate into the primer (primer extension, gel, FIG. 12 right) (human polymerase β): incorporated by human polymerase β in the normal fashion | incorporation of the triphosphate into the primer (primer extension, gel, FIG. 13 left) (human polymerase α): normal incorporation into the primer | incorporation of the triphosphate into the primer (primer extension, gel, FIG. 13 right) (human polymerase γ): normal incorporation into the primer
